Measured values taken from patent US20250295636A1, “METHOD FOR PREPARING 4-[5-[BIS(2-CHLOROETHYL)AMINO]-1-METHYL-1H-BENZO[D]IMIDAZOL-2-YL]BUTYRIC ACID ALKYL ESTERS AND FORMYLATED DERIVATIVES” (HERAEUS PRECIOUS METALS GMBH & CO. KG, priority 2022, published 2025).

Assays:
Format in all cases: cell-based
BxPC-3 = assay: MTS cell proliferation assay, BxPC-3 (pancreas); settings: Homo sapiens, 72 hours at 37° C., 490 nm
Experimental: (§1) Selected cell lines were incubated for 72 hours at 37° C. with different concentrations of 4-[5-[bis(2-chloroethyl)amino]-4-formyl-1-methyl-1H-benzo[d]imidazol-2-yl]butyric acid (concentrations ranging from 1.5 μmol to 5 mmol per liter). The cells were then incubated with MTS solution (Promega) for 1 hour, and the effects of 4-[5-[bis(2-chloroethyl)amino]-4-formyl-1-methyl-1H-benzo[d]imidazol-2-yl]butyric acid on cell proliferation were determined colorimetrically at 490 nm. Cell growth was expressed as a percentage of the corresponding control (0.5 wt. % dimethyl sulfoxide in water).

[1] = test system: skin cancer, kidney cancer, lung cancer, brain tumors and pancreatic cancer; assay: cancer-cell-killing or cancer-cell-growth-inhibiting effect (summary of example 3); settings: summary statement; compound and its pharmaceutically acceptable salts; concentration at which 50% of the cancer cells are killed
Experimental: IC50 stands for “inhibition concentration,” at which 50% of the cancer cells are killed.
as §1

U87MG = assay: MTS cell proliferation assay, U87MG (brain); settings: Homo sapiens, U-87 MG, 72 hours at 37° C., 490 nm
Experimental: as §1

A375 = assay: MTS cell proliferation assay, A375 (skin); settings: Homo sapiens, A-375, 72 hours at 37° C., 490 nm
Experimental: as §1

Caki-1 = assay: MTS cell proliferation assay, Caki-1 (kidneys); settings: Homo sapiens, 72 hours at 37° C., 490 nm
Experimental: as §1

Calu-6 = assay: MTS cell proliferation assay, Calu-6 (lung); settings: Homo sapiens, 72 hours at 37° C., 490 nm
Experimental: as §1

## Cn1c(CCCC(=O)O)nc2c(C=O)c(N(CCCl)CCCl)ccc21 [4-[5-[bis(2-chloroethyl)amino]-4-formyl-1-methyl-1H-benzo[d]imidazol-2-yl]butyric acid]
BxPC-3
  IC50: 740 µM
[1]
  low IC50 concentration range: one hundred
U87MG
  IC50: 2900 µM
A375
  IC50: 1300 µM
Caki-1
  IC50: 1600 µM
Calu-6
  IC50: 1300 µM
